Test system: C57BL/6J mice
Test: FeCl3-induced carotid artery thrombosis model
Type: in vivo
Conditions: heparin sodium 2.7 mg/kg by tail vein 10 min before 6% FeCl3; observed 30 min; n = 6
Experimental: The in vivo antithrombotic activity of WPK5-Mut was evaluated by using a FeCl3-induced carotid artery thrombosis model in mice. Mice (C57BL/6J, males, 18–22 g) were anesthetized by intraperitoneal injection of chloral hydrate (5%, 10 mL/kg) and then placed in a supine position on a heating pad (37 °C) to maintain body temperature. An incision was made in the middle of the mouse’s neck and the fascia and muscle were gradually separated to expose the carotid artery. A rubber strip (4 × 10 mm) was placed under the artery to separate it from the surrounding tissues, and mice were injected heparin sodium (2.7 mg/kg), WPK5-Mut (0.75, 1.5 and 3 mg/kg) or saline through the tail vein and placed under a laser speckle contrast imaging (moor FLPI-2, Moor Instruments Limited, Millwey, Axminster, Devon, EX13 5HU, UK) to observe the carotid blood flow. […] The occlusion time was defined as the time from the removal of the FeCl3 saturated filter paper to the blockage of the vessel for at least 3 consecutive min [44]. If a vessel is blocked at a certain time for 3 consecutive min, this time is recorded as occlusion time, and if no blockage occurs within 30 min, the occlusion time is recorded as 30 min. The blood flow was analyzed by moorFLPI ReviewV50 software.

heparin sodium
occlusion time: > 30 min
